Test results: ChEMBL document CHEMBL1201862, “PubChem BioAssay data set” (2004)
Values joined by “and” are separate entries in the source; they are usually repeats but may differ in a detail not shown here. Equal values may be shown once.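 Results reflect a 48-hour exposure of cells in 96-well plates to compound at five concentrations. GI50 marks 50% less growth.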 Active and inactive are the calls of the source. Rule as the data show it: active = GI50 up to about 1.1 µM and inactive = higher.

How the values were obtained:
Test in all cases: DTP human tumour cell line panel, 48 h
CCRF-CEM = system: CCRF-CEM
NCI-H23 = system: NCI-H23
K562 = system: K562
HOP-62 = system: HOP-62
NCI-H522 = system: NCI-H522
HCT-15 = system: HCT-15
HOP-92 = system: HOP-92
NCI-H460 = system: NCI-H460
SW-620 = system: SW-620
NCI/ADR-RES = system: NCI/ADR-RES
SK-MEL-5 = system: SK-MEL-5
HT-29 = system: HT-29
OVCAR-5 = system: OVCAR-5
RXF 393 = system: RXF 393
M14 = system: M14
SF-295 = system: SF-295
MDA-N = system: MDA-N
SK-OV-3 = system: SK-OV-3
RPMI-8226 = system: RPMI-8226
SF-539 = system: SF-539

Row | SMILES | GI50 (CCRF-CEM) | GI50 (NCI-H23) | GI50 (K562) | GI50 (HOP-62) | GI50 (NCI-H522) | GI50 (HCT-15) [µM] | GI50 (HOP-92) | GI50 (NCI-H460) | GI50 (SW-620) | GI50 (NCI/ADR-RES) | GI50 (SK-MEL-5) | GI50 (HT-29) | GI50 (OVCAR-5) | GI50 (RXF 393) | GI50 (M14) | GI50 (SF-295) | GI50 (MDA-N) | GI50 (SK-OV-3) | GI50 (RPMI-8226) | GI50 (SF-539)
1 | NCCSCc1ccccc1Cl | 25.2 µM (inactive) | 30.1 µM (inactive) | 26.9 µM (inactive) | 40.6 µM (inactive) | 48.2 µM (inactive) | > 100 | 68.2 µM (inactive) | 31.3 µM (inactive) | 33.4 µM (inactive) | > 100 µM (inactive) | 63 µM (inactive) | 36.1 µM (inactive) | > 100 µM (inactive) | 83.8 µM (inactive) | 63.4 µM (inactive) | 41.1 µM (inactive) | 30.5 µM (inactive) | – | – | –
2 | O=C1C(c2c(O)[nH]c3ccc([N+](=O)[O-])cc23)=Nc2ccccc21 | > 100 µM (inactive) | > 100 µM (inactive) | > 100 µM (inactive) | 87.5 µM (inactive) | > 100 µM (inactive) | > 100 | > 100 µM (inactive) | > 100 µM (inactive) | > 100 µM (inactive) | > 100 µM (inactive) | > 100 µM (inactive) | > 100 µM (inactive) | > 100 µM (inactive) | 13 µM (inactive) | > 100 µM (inactive) | 43 µM (inactive) | > 100 µM (inactive) | > 100 µM (inactive) | > 100 µM (inactive) | –
3 | COc1ccc(C2Oc3c(OC)cc(CCCO)cc3C2CO)cc1OC (configuration not stated) | – | – | 20.6 µM (inactive) and 38.5 µM (inactive) | > 100 µM (inactive) | 86.7 µM (inactive) | > 100 | 56.5 µM (inactive) | > 100 µM (inactive) | > 100 µM (inactive) | 69 µM (inactive) | – | > 100 µM (inactive) | > 100 µM (inactive) | > 100 µM (inactive) | > 100 µM (inactive) | 50.4 µM (inactive) and 70.8 µM (inactive) | 93.1 µM (inactive) and 71.4 µM (inactive) | > 100 µM (inactive) | – | > 100 µM (inactive)
4 | Brc1ccc2c(c1)-c1nc3c(cc1CC2)CCc1ccc(Br)cc1-3 | > 100 µM (inactive) | > 100 µM (inactive) | 22.6 µM (inactive) | > 100 µM (inactive) | > 100 µM (inactive) | > 100 | > 100 µM (inactive) | > 100 µM (inactive) | > 100 µM (inactive) | > 100 µM (inactive) | > 100 µM (inactive) | – | > 100 µM (inactive) | > 100 µM (inactive) | > 100 µM (inactive) | > 100 µM (inactive) | > 100 µM (inactive) | > 100 µM (inactive) | 0.637 µM (active) | –
5 | O=C(CCCN1CCC2(CC1)/C(=N/C1CCCCC1)NC(=O)N2c1ccccc1)c1ccc(F)cc1 | 23.4 µM (inactive) | 21.3 µM (inactive) | 29.8 µM (inactive) | 20.9 µM (inactive) | 24.7 µM (inactive) | 28.3 | 17.1 µM (inactive) | 22.7 µM (inactive) | > 100 µM (inactive) | 19.2 µM (inactive) | 23.1 µM (inactive) | 17.9 µM (inactive) | 20.9 µM (inactive) | 39.5 µM (inactive) | 17.6 µM (inactive) | 19.5 µM (inactive) | 18.2 µM (inactive) | – | 20.9 µM (inactive) | 18.8 µM (inactive)
6 | COc1ccc(C(c2cc(OC)c(OC)c(OC)c2)N2C(=O)CCC2C(=O)O)cc1 (configuration not stated) | 38.8 µM (inactive) | 82.8 µM (inactive) | 43.8 µM (inactive) | > 100 µM (inactive) | 52.1 µM (inactive) | 43.9 | > 100 µM (inactive) | 38.8 µM (inactive) | 50.1 µM (inactive) | > 100 µM (inactive) | 41.9 µM (inactive) | 35.6 µM (inactive) | 61.5 µM (inactive) | – | 38.3 µM (inactive) | 24.3 µM (inactive) | 21.1 µM (inactive) | 60.1 µM (inactive) | 49.8 µM (inactive) | 21.2 µM (inactive)
7 | CN(C)c1ccc(-c2c(C#N)c(O)n(NS(=O)(=O)c3ccccc3)c(=O)c2C#N)cc1 | > 100 µM (inactive) | – | > 100 µM (inactive) | > 100 µM (inactive) | > 100 µM (inactive) | > 100 | > 100 µM (inactive) | > 100 µM (inactive) | > 100 µM (inactive) | > 100 µM (inactive) | > 100 µM (inactive) | > 100 µM (inactive) | 0.912 µM (active) | > 100 µM (inactive) | 0.643 µM (active) | – | > 100 µM (inactive) | 0.377 µM (active) | > 100 µM (inactive) | > 100 µM (inactive)
8 | COC(=O)C1=C(C(=O)OC)C(Cc2ccccc2)(OO)OC1=O (configuration not stated) | 1.04 µM (active) | 12.7 µM (inactive) | 2.7 µM (inactive) | – | 2.32 µM (inactive) | 3.21 | 5.94 µM (inactive) | 36.2 µM (inactive) | 2.83 µM (inactive) | 7.82 µM (inactive) | 4.26 µM (inactive) | 3.17 µM (inactive) | 18.8 µM (inactive) | 4.94 µM (inactive) | 3.8 µM (inactive) | 29.5 µM (inactive) | 4.03 µM (inactive) | 29 µM (inactive) | – | 3.15 µM (inactive)
9 | COc1ccc(/N=[N+](\[O-])c2ccc(OC)cc2)cc1 | – | > 100 µM (inactive) | > 100 µM (inactive) | > 100 µM (inactive) | 79.8 µM (inactive) | > 100 | > 100 µM (inactive) | > 100 µM (inactive) | – | > 100 µM (inactive) | > 100 µM (inactive) | > 100 µM (inactive) | > 100 µM (inactive) | > 100 µM (inactive) | > 100 µM (inactive) | > 100 µM (inactive) | > 100 µM (inactive) | > 100 µM (inactive) | > 100 µM (inactive) | –
10 | CC(=O)OC[C@]1(C(=O)C(O)c2ccoc2)[C@H](C)CC[C@@]23COC(=O)C2=CCC[C@@H]31 (some centres not stated) | > 10 µM (inactive) | > 10 µM (inactive) | – | – | > 10 µM (inactive) | > 10 | > 10 µM (inactive) | > 10 µM (inactive) | > 10 µM (inactive) | > 10 µM (inactive) | > 10 µM (inactive) | > 10 µM (inactive) | > 10 µM (inactive) | > 10 µM (inactive) | > 10 µM (inactive) | > 10 µM (inactive) | > 10 µM (inactive) | > 10 µM (inactive) | > 10 µM (inactive) | > 10 µM (inactive)
11 | CCOC(=O)c1c(O)cn2c1[nH]c1cccc3cccc2c31 | 32.6 µM (inactive) | 62.4 µM (inactive) | > 100 µM (inactive) | 35.6 µM (inactive) | 46.5 µM (inactive) | 54.6 | 51.4 µM (inactive) | 92.7 µM (inactive) | > 100 µM (inactive) | > 100 µM (inactive) | > 100 µM (inactive) | > 100 µM (inactive) | > 100 µM (inactive) | 41.5 µM (inactive) | > 100 µM (inactive) | 87.5 µM (inactive) | > 100 µM (inactive) | > 100 µM (inactive) | > 100 µM (inactive) | –
12 | C(=N\c1ccc2c(c1)Cc1ccccc1-2)/c1ccccn1 | 23 µM (inactive) | 74.8 µM (inactive) | 30.9 µM (inactive) | > 100 µM (inactive) | 26.7 µM (inactive) | 48.3 | > 100 µM (inactive) | 60.3 µM (inactive) | 44.6 µM (inactive) | 91.2 µM (inactive) | 61.5 µM (inactive) | 63.1 µM (inactive) | > 100 µM (inactive) | > 100 µM (inactive) | > 100 µM (inactive) | > 100 µM (inactive) | 28.9 µM (inactive) | – | > 10 µM (inactive) | –
13 | O=C(O)Cc1ccc2nc(COC(=O)c3ccccc3)sc2c1 | < 0.01 µM (active) | > 100 µM (inactive) | > 100 µM (inactive) | > 100 µM (inactive) | > 100 µM (inactive) | > 100 | > 100 µM (inactive) | > 100 µM (inactive) | > 100 µM (inactive) | > 100 µM (inactive) | > 100 µM (inactive) | – | > 100 µM (inactive) | > 100 µM (inactive) | > 100 µM (inactive) | > 100 µM (inactive) | > 100 µM (inactive) | > 100 µM (inactive) | > 100 µM (inactive) | –
14 | Cc1ccc2[nH]c3c(c2c1)C1CCC(C(C)(C)C)CC1C1C(=O)N(c2ccc(Oc4ccccc4)cc2)C(=O)C31 (configuration not stated) | 2.63 µM (inactive) | 19.3 µM (inactive) | 8.91 µM (inactive) | 22.4 µM (inactive) | 13.2 µM (inactive) | 56.8 | 14.4 µM (inactive) | 16 µM (inactive) | 19.3 µM (inactive) | 20.5 µM (inactive) | > 92.5 µM (inactive) | > 79.6 µM (inactive) | 26.3 µM (inactive) | 7.55 µM (inactive) | 48.8 µM (inactive) | 26.6 µM (inactive) | 50 µM (inactive) | 17.7 µM (inactive) | 15.8 µM (inactive) | –
15 | CCC/C(Cl)=N/OC(=O)Nc1cccc(F)c1 | 0.526 µM (active) | 16.7 µM (inactive) | 1.08 µM (active) | 16.4 µM (inactive) | 0.309 µM (active) | 1.85 | 1.6 µM (inactive) | 19 µM (inactive) | 1.8 µM (inactive) | 6.04 µM (inactive) | 5.79 µM (inactive) | 4.91 µM (inactive) | 19.1 µM (inactive) | 3.23 µM (inactive) | 3.94 µM (inactive) | 17.5 µM (inactive) | 9.46 µM (inactive) | 17.3 µM (inactive) | 1.96 µM (inactive) | –
